Assays:
Polycomb protein EED [1] = biological target: T1, Polycomb protein EED (Homo sapiens, UniProt O75530); assay: TR-FRET Binding Assay; settings: pH 7.5; 25 °C
Procedure: (§1) The following buffer was used to set up the binding reactions: 20 mM Tris-HCl pH 7.5, 200 mM NaCl, 0.01% Tween-20, 10 μM DTT, and 0.05% BSA, with the DTT and BSA added fresh before initiating the binding assay. […] The reactions were then incubated for 1 h at 25 °C in a humidified chamber to obtain thermodynamic equilibrium before detection on the PerkinElmer Envision plate reader using a LanthaScreen TR-FRET protocol.

Polycomb protein EED [2] = biological target: T1, Polycomb protein EED; assay: Radioligand Binding Assay; settings: 23 °C
Procedure: 30 μl of reaction mixtures were incubated at 23 °C for 70 min. To stop the enzymatic reactions, 150 μl of 10% trichloroacetic acetic acid (TCA) was added, mixed and transferred to filter plates (Millipore; cat. # MSFBN6B10). Plates were centrifuged at 2,000 r.p.m. (Allegra X-15R - Beckman Coulter, Inc.) for 2 min followed by two additional 10% TCA washes and one ethanol wash followed by centrifugation.

Polycomb protein EED [3] = biological target: T1, Polycomb protein EED; assay: EED A-395 Peptide Competition Assay; settings: pH 7.5; 25 °C
Procedure: as §1, with “chamber” for “chamber to obtain thermodynamic equilibrium”, “an AlphaLISA/Screen” for “a LanthaScreen TR-FRET”

T1 sequence (O75530 whole entry): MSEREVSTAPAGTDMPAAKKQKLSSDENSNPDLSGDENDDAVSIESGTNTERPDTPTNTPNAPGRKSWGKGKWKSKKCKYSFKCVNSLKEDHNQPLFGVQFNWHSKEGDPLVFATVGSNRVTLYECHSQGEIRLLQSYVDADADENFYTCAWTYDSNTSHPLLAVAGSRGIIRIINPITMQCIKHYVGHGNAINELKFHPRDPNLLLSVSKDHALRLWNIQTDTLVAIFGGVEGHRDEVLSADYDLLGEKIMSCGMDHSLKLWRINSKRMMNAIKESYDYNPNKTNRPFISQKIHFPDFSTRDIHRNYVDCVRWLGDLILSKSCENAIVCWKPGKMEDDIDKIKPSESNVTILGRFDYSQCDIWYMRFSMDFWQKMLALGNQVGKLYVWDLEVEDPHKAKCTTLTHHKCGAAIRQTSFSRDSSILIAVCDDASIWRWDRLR

Row | Ki (Polycomb protein EED [1]) | IC50 (Polycomb protein EED [2]) | IC50 (Polycomb protein EED [3]) | SMILES
1 | 1 nM | – | – | CN(C)[C@H]1CN([C@H]2CCc3cccc(F)c32)C[C@@H]1c1cn(C)c2ccccc12 [(3R,4S)-1-[(1S)-7-fluoroindan-1-yl]-N,N-dimethyl-4-(1-methylindol-3-yl)pyrrolidin-3-amine (3)]
2 | 1830 nM | > 50000 nM | 1320 nM | CN(C)[C@@H]1CN(Cc2ccccc2)C[C@H]1c1ccc(N2CCN(S(C)(=O)=O)CC2)cc1 [A-395N (6)]
3 | 4 nM | – | – | Cc1cccc(F)c1CN1C[C@H](c2cn(C)c3ccccc23)[C@@H](N(C)C)C1 (racemic) [rac-(3R,4S)-1-(2-fluoro-6-methylbenzyl)-N,N-dimethyl-4-(1-methyl-1H-indol-3-yl)pyrrolidin-3-amine (2)]

Source: BindingDB's records for doi:10.1038/nchembio.2306 (AbbVie Inc, 2017)
